Values quoted from earlier work, collected in article PMC12658903 (RSC Medicinal Chemistry, 2025).
pIC50: −log10 of the molar value.

Legend:
HAT = details: read-out: IC50 (μM) HAT; cited from earlier work
TMPRSS2 = details: read-out: IC50 (μM) TMPRSS2; cited from earlier work
furin = details: read-out: IC50 furin; cited from earlier work

| SMILES | IC50 (HAT) | IC50 (TMPRSS2) | pIC50 (furin) |
| --- | --- | --- | --- |
| CN(C)C(=O)COC(=O)Cc1ccc(OC(=O)c2ccc(NC(=N)N)cc2)cc1 [Camostat, camostat] | 0.151 µM | […] |  |
| N=C(N)c1ccc(/N=N/Nc2ccc(C(=N)N)cc2)cc1 [diminazen] |  |  | 4.88 |
